The source of these data is US20040014637A1, “Mechanism for the inactivation of insulin receptor and uses in the treatment of type II diabetes” (McGill University, priority 1998, published 2004).

The target in assay [1] is T1, insulin receptor (Rattus norvegicus, UniProt P15127).
T1 construct: from tissue; host or cells: rat liver; endosome (EN) and plasma membrane (PM) fractions
Kind of assay: 125I-insulin binding after preincubating endosomes (ENs containing IR) with nucleotides. Particulars: Table 2; addition 10 mM, 37° C. 15 min; normalized to endosomes without nucleotide. The procedure:
Rats were anaesthetized with ether and were injected via jugular vein with a dose (per 100 g body weight) of insulin (1.5 μg), or bpV(phen) (0.6 μmol), dissolved in 0.2 ml. phosphate buffered saline (pH 7.4) −0.1% BSA. […] Livers were rapidly excised, placed in ice-cold homogenizing buffer (50 mM HEPES (pH 7.4), 0.25 M sucrose, 1 mM PMSF, 1 MM MgCl2, 1 mM benzamidine) and minced before homogenization. […] These subcellular fractions have been characterized in detail both morphologically and biochemically.
After 10 min at room temperature, the reactions was terminated by spotting 50 μl aliquots on Whatman 3 MM filters.
In the present study we wished to assess whether other processes might be involved in reducing the association of intraendosomal insulin with its receptor. We examined the effect of incubating intact ENs containing IR with increasing concentrations of ATP on subsequently measured insulin and hGH binding in both solubilized and WGA-purified receptors.

The target in assay [2] is T2, insulin receptor kinase (IRK) (Rattus norvegicus, UniProt P15127).
T2 construct: from tissue; host or cells: rat liver; endosome (EN) and plasma membrane (PM) fractions
T2 sequence (P15127 27-759 limits assumed): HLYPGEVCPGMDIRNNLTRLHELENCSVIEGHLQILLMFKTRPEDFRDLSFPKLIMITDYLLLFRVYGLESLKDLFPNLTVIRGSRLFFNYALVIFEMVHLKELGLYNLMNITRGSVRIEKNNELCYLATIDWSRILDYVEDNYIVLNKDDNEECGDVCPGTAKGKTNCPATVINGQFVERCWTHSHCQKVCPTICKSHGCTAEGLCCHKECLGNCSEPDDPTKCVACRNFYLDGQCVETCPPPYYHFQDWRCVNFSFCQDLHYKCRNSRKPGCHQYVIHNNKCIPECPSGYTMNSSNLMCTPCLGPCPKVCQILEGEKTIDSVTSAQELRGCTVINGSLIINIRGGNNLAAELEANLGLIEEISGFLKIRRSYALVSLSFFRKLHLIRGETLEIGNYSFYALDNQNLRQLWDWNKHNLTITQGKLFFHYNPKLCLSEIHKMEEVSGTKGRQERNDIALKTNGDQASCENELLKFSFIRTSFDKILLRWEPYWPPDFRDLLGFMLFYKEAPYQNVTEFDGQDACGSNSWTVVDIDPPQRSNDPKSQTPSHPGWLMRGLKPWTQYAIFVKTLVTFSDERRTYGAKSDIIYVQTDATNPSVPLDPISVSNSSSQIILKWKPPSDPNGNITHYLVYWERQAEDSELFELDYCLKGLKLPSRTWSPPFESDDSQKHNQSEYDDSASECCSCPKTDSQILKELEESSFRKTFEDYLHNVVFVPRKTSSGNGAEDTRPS
T2 sequence (P15127 764-1383 limits assumed): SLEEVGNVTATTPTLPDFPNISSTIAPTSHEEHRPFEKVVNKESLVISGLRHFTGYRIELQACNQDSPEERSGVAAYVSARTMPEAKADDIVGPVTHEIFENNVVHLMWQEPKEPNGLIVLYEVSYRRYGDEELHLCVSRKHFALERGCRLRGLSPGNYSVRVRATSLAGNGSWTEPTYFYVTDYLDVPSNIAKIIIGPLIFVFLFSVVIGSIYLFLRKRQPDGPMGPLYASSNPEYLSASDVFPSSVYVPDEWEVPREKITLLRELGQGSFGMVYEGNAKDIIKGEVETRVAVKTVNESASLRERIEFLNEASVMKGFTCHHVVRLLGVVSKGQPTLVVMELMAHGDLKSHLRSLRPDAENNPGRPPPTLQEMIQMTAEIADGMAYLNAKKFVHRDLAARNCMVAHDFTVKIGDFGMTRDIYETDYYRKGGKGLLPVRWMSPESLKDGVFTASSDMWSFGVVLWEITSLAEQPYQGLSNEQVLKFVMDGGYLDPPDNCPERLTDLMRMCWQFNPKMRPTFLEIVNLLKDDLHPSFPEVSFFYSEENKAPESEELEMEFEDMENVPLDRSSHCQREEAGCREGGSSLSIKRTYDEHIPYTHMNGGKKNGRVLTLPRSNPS
Kind of assay: Insulin receptor kinase (IRK) exogenous tyrosine kinase activity, Poly (Glu:Tyr) (4:1) substrate, WGA-purified IRK from preincubated cell fractions. The class given is biochemical.

The conditions of assay [3]: treatment of Type II diabetic patients; cited from earlier work.
The subject of assay [4] is intraendosomal insulin degradation. The settings on record: cited from earlier work.
In assay [5] the target is T3, insulin receptor kinase (IRK) β-subunit (Rattus norvegicus, UniProt P15127).
T3 construct: from tissue; host or cells: rat liver; endosome (EN) and plasma membrane (PM) fractions
T3 sequence (P15127 27-759 limits assumed): as the sequence (P15127 27-759 limits assumed) above
T3 sequence (P15127 764-1383 limits assumed): as the sequence (P15127 764-1383 limits assumed) above
Kind of assay: IRK β-subunit phosphotyrosine content (αPY immunoblot of WGA eluates). Type of assay: biochemical. The procedure: The phosphotyrosine content of endosomal IRs (ENs containing IR) was determined by subjecting lectin column (WGA-Sepharose™)-purified preparations to SDS-PAGE and immunoblotting with α960 and αPY (Faure et al. (1992) J. Biol. Chem. 267, 11215-11221). […] FIG. 1B illustrates the effect of ATP on β subunit phosphotyrosine content. WGA eluates (5 μg protein) were subjected to SDS-PAGE in 7.5% gels followed by transfer of proteins to Immobilon-P membranes. Membranes were probed with αPY or α960 antibodies followed by incubation with ^125I-GAR as second antibody and exposed for autoradiography.

T1 sequence (P15127 27-759 limits assumed): as the sequence (P15127 27-759 limits assumed) above
T1 sequence (P15127 764-1383 limits assumed): as the sequence (P15127 764-1383 limits assumed) above

Regarding `O=P([O-])([O-])OP(=O)([O-])[O-].[Na+].[Na+].[Na+].[Na+]` [NaPiPi, sodium pyrophosphate], the “125I-Insulin specific binding (%), WGA-purified endosomes” value in assay [1] was 97.8 ± 2.3%.

`Nc1ncnc2c1ncn2[C@@H]1O[C@H](COP(=O)(O)OP(=O)(O)CP(=O)(O)O)[C@@H](O)[C@H]1O` [AMP—P—C—P]: in assay [1], the “125I-Insulin specific binding (%), Solubilized endosomes” value came to 109.1 ± 0.9% and the “125I-Insulin specific binding (%), WGA-purified endosomes” value is recorded as 95.1 ± 2.0%. In addition, the “Effect on level of IRK activity (FIG. 2)” value in assay [2] (5 mM AMP-P-C-P, in the presence or absence of 1 mM ATP) is given as “no effect”.

With `Nc1ncnc2c1ncn2[C@@H]1O[C@H](CO)[C@@H](O)[C@H]1O` [Adenosine, adenosine], in assay [1], the “125I-Insulin specific binding (%), Solubilized endosomes” value is 94.5 ± 4.1% and the “125I-Insulin specific binding (%), WGA-purified endosomes” value came to 105.9 ± 3.3%.

`Nc1ncnc2c1ncn2[C@@H]1O[C@H](COP(=O)(O)OP(=O)(O)NP(=O)(O)O)[C@@H](O)[C@H]1O` [AMP—P—N—P]: in assay [1], the “125I-Insulin specific binding (%), Solubilized endosomes” value was found to be 112.2 ± 2.8% and the “125I-Insulin specific binding (%), WGA-purified endosomes” value came out at 99.1 ± 1.0%.

Turning to `CCN(CC)CCCC(C)Nc1ccnc2cc(Cl)ccc12` (stereo not shown) [chloroquine], the “Glucose metabolism in Type II diabetic patients” value in assay [3] was “improve glucose metabolism”. Moreover, the Intraendosomal insulin degradation entry in assay [4] is listed as “inhibits intraendosomal insulin degradation”.

Take `Nc1ncnc2c1ncn2[C@@H]1O[C@H](COP(=O)(O)OP(=O)(O)O)[C@@H](O)[C@H]1O` [ADP]: in assay [1], the “125I-Insulin specific binding (%), Solubilized endosomes” value turned out to be 96.3 ± 6.4% and the “125I-Insulin specific binding (%), WGA-purified endosomes” value worked out at 82.7 ± 5.2%.

`CO/C1=C\C(C)=C\[C@@H](C)[C@@H](O)[C@@H](C)C/C(C)=C/C=C/[C@H](OC)[C@@H]([C@@H](C)[C@@H](O)[C@H](C)[C@@]2(O)C[C@@H](O)[C@H](C)[C@@H](C(C)C)O2)OC1=O` [Bafilomycin A1]: the “Effect on ability of ATP to reduce IRK activation (FIG. 4A)” value in assay [2] (1 μM Bafilomycin A1 preincubation 30 min 37° C., then 5 and 10 mM ATP 15 min) is “marked attenuation”. Further, in assay [2] (ENs containing IR incubated with 5 mM ATP), the “Effect on inhibition of IRK tyrosine phosphorylation and activity by 5 mM ATP” value is given as “completely reversed”. For the same compound, in assay [2] (preincubation with 1 μM Bafilomycin A1, 30 min 37° C. (without: 1.3)), the “IRK activity in ENs after preincubation, before ATP additions” value is given as 1.4 pmol/10 min/10 fmol insulin binding. In addition, the “Level of IRK tyrosine phosphorylation at 5 mM ATP (FIG. 4B)” value in assay [5] (in the presence of Bafilomycin (1 μM), 5 mM ATP) is “comparable to that observed at 1 mM ATP”.

In the case of `O.O.O.OO.OO.[K+].[OH-].[V].c1cnc2c(c1)ccc1cccnc12` [bpV(phen)], the “Effect on suppression of IRK activity by 5 mM ATP (FIG. 6A)” value in assay [2] (coincubation of ENs with 0.1 mM bpV(phen)) is on record as “did not prevent”. Also, the “IRK activity of ENs isolated from pretreated rats” value in assay [2] (rats given bpV(phen) 0.6 μmol/100 g body weight i.v., ENs at 15 min) is listed as “augmented IRK activity”. In addition, the “Effect on reduction in β-subunit tyrosine phosphorylation by 5 mM ATP (FIG. 6B)” value in assay [5] (bpV(phen) 0.1 mM in vitro or rats pretreated) is “did not influence the reduction”.
